The text below walks through data of patent US6046228A, “Anti-viral pharmaceutical compositions containing saturated 1,2-dithiaheterocyclic compounds and uses thereof” (priority 1999, dated 2000).

The subject of test [1] is fusion of cells expressing CD4 and gp120. The test is described as follows: fusion of target cells expressing CD4 and gp120. In kind it is cell-based. As to conditions: in words.
The subject of the next test is HIV-1 ROJO(SI). Briefly: antiviral assay in PBL (p24), clinical isolate ROJO. It is filed as cell-based. The settings on record: Human immunodeficiency virus 1, cell-free p24. The protocol: (§1) Initial anti-HIV screening was performed with CEM-SS cells and HIV-1RFusing the XTT cytoprotection assay as previously described (Weislow et al., J. National Cancer Inst. 81: 577-586, (1989)). HIV-1 isolates included common laboratory stains (RF, IIIB and MN), as well as a panel of HIV-1 clinical isolates (Cushman et al., J. Med. Chem. 37: 3040-3050, (1994)). The pyridone-resistant HIV-1A17 isolate (Nunberg et al., J. Virol., 65: 4887-4892 (1991)) was obtained from Emilio Emini at Merck Sharpe and Dohme Laboratories. Phytohemagglutinin-stimulated human peripheral blood lymphocytes (PBLs) and fresh monocyte-macrophage (Mono/MF) cultures were prepared and utilized in antiviral assays as previously described (Rice et al., Proc. Nat'l. Academy Science, USA 90: 9721-9724, (1993)); (Cushman et al., J. Med. Chem. 37: 3040-3050, (1994)). EC50 values for these cultures indicate the drug concentration that provided a 50% reduction in viral p24 production. […] The compounds can be synthesized according to the teachings of Singh et al., Sulfur Letters 8: 107-114, (1988). The 4,5-cis-dihydroxy(1,1-dioxy-1,2,-dithiohexane) compound (NSC 624151) has been abbreviated as 624151 for convenience. […]

For another test, the system named is HIV-2ROD. The test is described as follows: XTT cytopathicity assay, other retroviruses. In kind it is cell-based. The settings on record: Human immunodeficiency virus 2, CEM-SS. The protocol: as §1
The target in a further test is T1, gp120-CD4 (UniProt P01730+P03375).
T1 construct: purchased
Briefly: gp120-CD4 binding, antigen capture ELISA. The arrangement: species or system HIV-1. On the procedure: Binding of HIV-1RF to PBLs was measured by a p24-based assay (Rice, et al., Proc. Nat'l. Academy of Science USA 90: 9721-9724, (1993)). Briefly, 5×10^5 PBLs were incubated with a concentrated stock of virus for 30 min. at 37° C. in the absence or presence of various concentrations of 624151, the unbound virus was washed away, and the cell-associated virus was solubilized in 1% Triton X-100, 1% BSA and analyzed by the p24 antigen capture assay as previously described. The binding of gp120to CD4 was analyzed using an antigen capture ELISA. All steps of the assay were carried out according to the manufacturer's protocols.
^.dagger. Attachment of HIV1 to fresh human PBLs, binding of gp120 to
CD4, and the effects of compounds on HIV1 RT and protease were quantitate

A further test has as its system HIV-1 VIHU(NSI). The test is described as follows: antiviral assay in PBL (p24), clinical isolate VIHU. In kind it is cell-based. The settings on record: Human immunodeficiency virus 1, cell-free p24. The protocol:
as §1

A further test has as its system HIV-1NL4-3. The test is described as follows: XTT cytopathicity assay, NL4-3 without RT mutation. It is filed as cell-based. As to conditions: Human immunodeficiency virus 1, NL43; MT-2, NL4-3, RT mutation None. On the procedure:
as §1

A further test concerns HIV-1, HIV-2 and SIV. Briefly: range of antiviral action studies. In kind it is cell-based. As to conditions: in words. On the procedure:
as §1

As for `O=S1(=O)C[C@H](O)[C@H](O)CS1` (relative stereo) [NSC 624151, cis-1,1-dioxo[1,2]dithiane-4,5-diol], the inhibition of fusion result in test [1] was “did not inhibit”. The EC50 in the test on HIV-1 ROJO(SI) was 25 µM; in the test on HIV-2ROD, 15.6 µM; in the test with HIV-1 VIHU(NSI) it was 12 µM; in the test with HIV-1NL4-3 it was 16.6 µM. Besides, on gp120-CD4 (in words), the “inhibition of gp120-CD4 interaction” value is listed as “did not inhibit”. On gp120-CD4 (read-out: gp120-CD4 ID50), the IC50 is more than 100 µM. Also, the “inhibition of replication of laboratory and drug-resistant HIV-1 strains” value with HIV-1, HIV-2 and SIV (RF, IIIB, SK1, MN, AZT-, nevirapine-, pyridinone-, NNRTI-resistant strains) was “effectively inhibited replication”. Also, the “activity against RT mutants, clinical strains, clades, HIV-2 and SIV” value with HIV-1, HIV-2 and SIV is “active against”.
